The source of these data is article PMC7541675 (Molecular cancer therapeutics, 2020).

Read-outs that look alike come from different tables or passages of the source.

For data set [1] the following is noted: in vivo.
The test system of the next data set is ovarian cancer. To be noted: cited from earlier work.
A short description of data set [2]: Pharmacokinetic analyses of paclitaxel and sorafenib in plasma. To be noted: paclitaxel 80 mg/m^2 IV, C1D15 (with sorafenib); for Cmax: human, iv, Cmax mean (SD).
The test system of data set [3] is patients with advanced refractory solid tumors.
The conditions of data set [4]: 200 mg BID; cited from earlier work.
The next data set in a line: clinical. To be noted: human, in vivo; for Cmax: Cmax mean (SD); for half-life: t1/2 mean (SD).
The test system of another data set is patients. The conditions noted are these: cited from earlier work.
The mark [5] stands for this setting: paclitaxel without bevacizumab, AURELIA paclitaxel cohort.
[6] abbreviates: recurrent ovarian cancer patients.
The mark [7] stands for this setting: in combination bevacizumab plus sorafenib, previous phase I studies.
Setting [8] is: bevacizumab added to paclitaxel, AURELIA paclitaxel cohort.

In the case of `CC(=O)O[C@H]1C(=O)[C@@]2(C)[C@H]([C@H](OC(=O)c3ccccc3)[C@]3(O)C[C@H](OC(=O)[C@H](O)[C@@H](NC(=O)c4ccccc4)c4ccccc4)C(C)=C1C3(C)C)[C@]1(OC(C)=O)CO[C@@H]1C[C@@H]2O` [paclitaxel], the “paclitaxel exposure with concurrent sorafenib (drug interaction)” value in data set [1] was “no significant differences”. In the data set on ovarian cancer (setting [5]), the ORR is reported as 30.2%, the OS is 13.2 months and the PFS is on record as 3.9 months. In data set [2] (cohort 1, sorafenib 200 mg BID 5/7, n=6), this compound came in with a maximum concentration (Cmax) of 4350 ng/mL. In data set [2] (cohorts 2/2 expansion, sorafenib 200 mg BID 7/7, n=13), this compound gave a Cmax of 3480 ng/mL. The “Cmax mean (SD)” value in data set [2] (cohort 3, sorafenib 400 mg BID 5/7, n=2) is listed as 3,804 (1306) ng/mL.
Turning to `CNC(=O)c1cc(Oc2ccc(NC(=O)Nc3ccc(Cl)c(C(F)(F)F)c3)cc2)ccn1` [sorafenib], in data set [3] (human, in vivo), the “Median number of cycles before sorafenib dose reduction to 200 mg QD 5/7” value is 3 cycles, the “Patients needing further sorafenib dose reduction to 200 mg QOD” value is listed as 21%, the “Patients on study ≥ 4 months who had sorafenib dose reductions” value was 76% and the “Patients requiring further sorafenib dose reduction to 200 mg QD 5/7” value worked out at 62%. Besides, the “Recommended phase II dose (RP2D)” value in data set [3] (human, in vivo) amounted to 200 mg BID 5/7. Moreover, the “Maximum tolerated dose (MTD)” value in data set [3] (sorafenib oral, with bevacizumab 5 mg/kg Q2W and paclitaxel 80 mg/m^2 QW x 3 every 4 weeks) stood at 200 mg BID 7/7. In data set [1] (human, po), the “t1/2 mean (SD)” value is 6.5 (2.2) h. In data set [1] (human, po, 200 mg), the “AUC0–8 mean (SD)” value is recorded as 14,911 (8,174) ng*hr/mL and the “Cmax mean (SD)” value is reported as 4,539 (2,333) ng/mL. Moreover, in the data set with ovarian cancer (setting [6]), the “ORR, single agent” value is 3%; the “OS, single agent” value is given as 16 months; the “PFS, single agent” value is 2 months. The ORR in the data set with ovarian cancer (sorafenib dosed sequentially with topotecan, TRIAS randomized phase II, platinum-resistant ovarian cancer) was 31%. Besides, the PFS with ovarian cancer (sorafenib dosed sequentially with topotecan, TRIAS, p=0.002) is on record as 6.7 months. The OS in the data set with ovarian cancer (sorafenib dosed sequentially with topotecan, TRIAS, p=0.017) is given as 17 months. Besides, in data set [4], the “AUC0–8, historical values with sorafenib alone” value was 6,000–16,000 ng*h/mL. In the data set “clinical” (po, 200 mg), the highest level (Cmax) was 2760 ng/mL. In the data set “clinical” (po, 400 mg, AUC0–8 mean (SD)), this compound returned an area under the curve AUC(0-t) of 23000 ng·h/mL. Moreover, in “clinical” (po, 400 mg), the Cmax amounted to 3820 ng/mL and the half-life was 7.8 h. The compound further gave a half-life in “clinical” (po) of 4 h. Besides, the area under the curve AUC(0-t) in the data set “clinical” (sorafenib AUC0–8 in non-responders) is 17300 ng·h/mL. The same compound had an area under the curve AUC(0-t) in “clinical” (sorafenib AUC0–8 in responders) of 38100 ng·h/mL. Also, the “HFSR incidence expected with monotherapy” value in the data set on patients (anti-VEGF monotherapy, all grades) is on record as 25–50%. The “grade 3 HFSR incidence expected with monotherapy” value in the data set on patients (anti-VEGF monotherapy) was 10%. Further, in the data set on patients (setting [7]), the “maximum tolerated dose (MTD) of sorafenib” value was 200 mg twice daily (BID).
On to `CC[C@@]1(O)C(=O)OCc2c1cc1n(c2=O)Cc2cc3c(CN(C)C)c(O)ccc3nc2-1` [topotecan], for which, in the data set with ovarian cancer (topotecan alone, TRIAS), the OS is recorded as 10 months and the PFS is given as 4.4 months.
Take bevacizumab: the PFS in the data set on ovarian cancer (bevacizumab added to chemotherapy, AURELIA, p<0.001) is listed as 6.7 months. Further, the OS with ovarian cancer (bevacizumab added to chemotherapy, AURELIA, p=0.174) is 16.6 months. For the same compound, in the data set on ovarian cancer (setting [8]), the ORR is 53.3%, the OS was 22.4 months and the PFS is on record as 10.4 months. In addition, in the data set on ovarian cancer (setting [6]), the “ORR, single agent” value was 20% and the “OS, single agent” value is recorded as 17 months. Besides, the “HTN incidence expected with monotherapy” value with patients (human, in vivo) is given as 15–30%. For the same compound, in the data set with patients (setting [7]), the “maximum tolerated dose (MTD) of bevacizumab” value is 5 mg/kg Q2W.

What is called Cmax is the maximum level reached in the sampled fluid or tissue. In general, AUC(0-t) refers to exposure summed from dosing to a finite time, without extrapolation to infinity. The half-life is how long it takes for the measured level to halve.
